Reference: patent US12233041B2, “Disulfonate stilbenes for use in the treatment of proliferative diseases” (UNIVERSITÉ DE NANTES, priority 2018, dated 2025)
“Also recorded” adds a separate entry of the source. Like-named read-outs stand apart in the source and are kept apart here.

Columns and labels:
DU-145 cell line = assay: Clonogenicity test, sensitizing effect with an antineoplastic drug; format: cell-based; conditions: Homo sapiens, DU-145, B-2 20 μM
Description: Clonogenicity tests are carried out against several model cell lines derived from cancer including prostate cancer (DU-145). Cells are exposed to an anti-cancer agent targeting DNA (cisplatin or camptothecin). Damaged cells are counted and seeded in the presence or in the absence of B-2 in triplicate culture plates. After about two weeks of incubation at 37° C. the number of clones formed is counted. Each cell capable of repairing its lesions will then form a clone. After counting, the percentage of survival will be calculated relative to the control condition for which it is considered that there is 100% survival.
The main interest of RAD51 protein inhibitors is the sensitization of chemo-resistant or radio-resistant cancerous cell lines. Clonogenicity evaluation was carried out on the DU-145 cell line treated with cisplatin treatment in the presence or in the absence of disulfonate stilbene B-2 (RAD51 protein inhibitor).
DU-145 cell line was treated with camptothecin in the presence or in the absence of disulfonate stilbene B-2 (RAD51 protein inhibitor) and the clonogenic cell survival was determined.

[1] = tested on: recombinant fibroblast line RG37; assay: Intracellular homologous recombination (HR), GFP reconstitution after I-SceI cleavage, flow cytometry; format: cell-based; conditions: RG37 cells, 72 h after pCMV-HA-I-SceI transfection; FIG. 3
Description: After transfection with the pCMV-HA-I-SceI plasmid and incubation for 72 h, the cells were collected in PBS and 50 mM EDTA, pelleted and fixed with 2% paraformaledhyde for 20 min. The percentage of GFP-expressing cells was scored by FACS analysis using Cytoflex (Beckman Coulter). At least 3 independent experiments were performed, and HA-I-SceI expression was verified each time by Western blot with rabbit anti-HA antibody (Abcam).
The recombinant fibroblast line RG37 is used to confirm in vitro results (Examples 2-5) in the cellular context. This cellar line comprises two non-functional GFP cassettes, one of which has a unique cleavage site inducible by transfection of a restriction enzyme. After cleavage, which is equivalent to a double-strand break (DSB) of the DNA, the homologous recombination (HR) leads to the reconstitution of a complete GFP cassette thus making the cell fluorescent. The rate of intracellular HR is then determined by measurement in flow cytometry so as to measure the level of HR in cells after treatment with compounds C-3, B-2 and X-2.

Rad51 = target: T1, Rad51 (Homo sapiens, UniProt Q06609); assay: RAD51 nucleofilament formation by Bio-Layer Interferometry (BLItz), binding of Rad51 to ssDNA
T1 sequence (Q06609 1-339): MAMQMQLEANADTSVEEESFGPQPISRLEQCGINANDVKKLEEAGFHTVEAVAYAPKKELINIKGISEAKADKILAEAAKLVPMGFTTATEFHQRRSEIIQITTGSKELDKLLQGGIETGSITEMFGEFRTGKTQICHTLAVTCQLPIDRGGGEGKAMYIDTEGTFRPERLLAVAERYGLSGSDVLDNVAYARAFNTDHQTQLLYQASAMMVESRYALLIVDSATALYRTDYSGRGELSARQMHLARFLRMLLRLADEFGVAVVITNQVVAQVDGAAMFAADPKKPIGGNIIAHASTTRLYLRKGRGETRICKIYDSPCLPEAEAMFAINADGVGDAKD
Description: The binding of Rad51 to ssDNA was monitored and quantified by Bio-Layer Interferometry technology using the BLItz platform (FortéBio Inc.). The procedure includes four steps: (1) the baseline in buffer A containing 1×PBS, 10 mM MgCl2 and 0.0075% Tween20 was recorded for 20 s; (2) loading and binding of Rad51 were measured for 40 s using 1.5 μM Rad51 and 1 mM ATP in buffer A; (3) the dissociation of Rad51 from ssDNA was recorded for 20 s in buffer A; (4) the ssDNA biosensor was regenerated using baths of 50 mM NaOH. Except for the step 2, which used 4 μL drop of the protein sample, the steps 1, 3 and 4 used 250 μL solutions in 0.5 mL tube. The measurement parameters were as follows: room temperature measurement and stirring speed of 2200 rpm. To investigate the effect of CSB and analogs to the ssDNA binding of Rad51, the molecule was included in the protein sample of the step 2 at the indicated concentrations and incubated for 5 min before loading on the biosensor. (Normand, A. et al., “Identification and characterization of human Rad51 inhibitors by screening of an existing drug library.”, Biochemical Pharmacology, October 2014, Vol. 91, No. 3, pp. 293-300).
A test based on interferometry (Blitz®, Fortebio) allows the measure of the association kinetics of RAD51 protein with a single-stranded DNA immobilized on a biosensor support in the presence or absence of an inhibitor. The effect of compounds B-1, B-2, B-3, BPQ and X-4 on RAD51 nucleofilament formation has been evaluated in presence of increasing doses of inhibitors. The results are presented on FIG. 2.

N#Cc1ccc(/C=C/c2ccc(C#N)cc2S(=O)(=O)[O-])c(S(=O)(=O)[O-])c1.[Na+].[Na+] [B-2, Sodium (E)-6,6′-(ethene-1,2-diyl)bis(3-cyanobenzenesulfonate)]
percent decrease of IC50 at 20 µM (DU-145 cell line; read-out: decrease of growth inhibition IC50 for camptothecin in presence of B-2): ~90% | percent decrease of IC50 at 20 µM (DU-145 cell line; read-out: decrease of growth inhibition IC50 for cisplatin in presence of B-2): ~40% | intracellular HR inhibition [1]: significant inhibitory effect | activity on nucleofilament formation compared with reference molecule BPQ (Rad51; FIG. 2): comparable to or even better | effect on nucleofilament formation compared with DIDS (Rad51; high dose (50 μM)): same effect | formation of RAD51 protein nucleofilament (relative binding of RAD51 protein with single-stranded DNA) (Rad51; increasing doses of inhibitors, FIG. 2): inhibit; also recorded: very strongly diminished | activity on nucleofilament formation compared with reference molecule DIDS (Rad51; low dose (5 μM)): comparable
